Data from US5506213A, “Adminstration of 2'-halo-2'-deoxy adenosine to treat inflammatory bowel disease” (priority 1994, dated 1996).

Experiments:
multiple sclerosis = experiment: Treatment of chronic multiple sclerosis patients with CdA; format: in vivo, human
Protocol: A study of four patients with chronic multiple sclerosis was undertaken. Each patient was first examined for normal hepatic, renal, and bone marrow functioning to establish baseline values. Each of the patients was then treated with CdA dissolved in sterile preservative-free isotonic saline. The CdA was administered intravenously at a dosage of 0.1 mg/kg each day for a total of seven days. Each patient received six courses of intravenous therapy, once monthly for a total of six months. Patients were examined on a daily basis while hospitalized. During that time, daily blood counts and twice weekly blood chemistries were performed on each patient. CdA levels were also measured in blood and spinal fluid.
The neurologic function of each of these patients was measured using the expanded Krutzke disability status scale (EDSS), and the neurologic rating scale (NRS).

[1] = tested on: RNA synthesis in monocytes; experiment: Monocyte RNA synthesis, 3H-uridine incorporation; format: cell-based, human; conditions: 1 nM CdA; detectable after the first hour of culture
Protocol: FIG. 5 is a graph showing the biochemical effects induced in human monocytes in vitro by exposure to […] CdA over a period of 16 hours. The effects of CdA exposure upon monocyte viability (open squares), NAD content (closed squares), RNA synthesis (open circles) and DNA strand breaks (ds-DNA; closed circles) are illustrated.
Monocyte RNA synthesis following CdA exposure was studied by measuring the incorporation of ^3 H-uridine. Monocytes were exposed to ^3 H-uridine (20 μCi/10^6 cells) during the final 1 hour of CdA (1 nM) exposure. Radioactivity measured was contained in trichloroacetic acid precipitates collected onto cellulose acetate filters and measured by liquid scintillation counting.

DHL9, wild type = experiment: Direct comparative cytotoxicity assay (Table II), DHL9 wild type; format: cell-based, human; conditions: Homo sapiens, 120 h, read-out: ID50: concentration that produced 50 percent reduction in all numbers after five days
From the text: The two compounds, CdA and CAFdA, were also compared for in vitro activity against another group of human cell lines in a direct comparative assay.
^1 Concentration that produced 50 percent reduction in all numbers
^2 CEM cells are T lymphoblasts; DHL9 cells are lymphoblasts.

[2] = tested on: antigen-induced arthritis; experiment: Antigen-induced arthritis in rabbits; format: in vivo; conditions: CdA 1 mg/kg, tepoxalin 25 mg/kg, naproxen 5 mg/kg
Protocol: Antigen-induced arthritis in rabbits is an animal model of rheumatoid arthritis. In this model, the rabbits are sensitized to an antigen such as ovalbumin or methylated bovine serum albumin in an adjuvant. Several weeks later, the same antigen is injected directly into the joints of the animal. […] Pettipher et al., Br. J. Exp. Path., 69:113-122 (1988).
Rabbits with antigen-induced arthritis were treated with CdA (1 mg/kg), tepoxalin (25 mg/kg) or naproxen (5 mg/kg).

IL-6 = experiment: Spontaneous IL-6 secretion by cultured monocytes, B9.9 hybridoma bioassay; format: cell-based, human
Protocol: FIG. 6 is a graph that illustrates the effects of relatively low doses of CdA used to contact monocytes for a 72 hour time period. Monocyte release of interleukin-6 (IL-6; closed diamonds) and phagocytosis of antibody-coated red blood cells (RBC; closed squares) were examined, as was the viability of the cultured monocytes (open squares). Effects are expressed as a percentage of control values versus the CdA concentration in nanomoles (nM).
The ability of dialyzed culture supernatants to promote proliferation of B9.9 hybridoma cells is a measure of IL-6 activity (Helle et al. (1988) Eur. J. Immunol., 18:1535-1540). Monocytes spontaneously secrete IL-6 upon adherence to plastic during short-term in vitro culture (Guerne et al. (1989) J. Clin. Invest., 83:585-592). Monocytes cultured in autologous plasma 20 percent for three days secreted approximately 18 U per ml of IL-6, as determined by the bioassay standard curve using rIL-6.
The spontaneous secretion, of IL-6 by cultured monocytes was measured by the hybridoma growth factor bioassay as described by Guerne et al. (1989) J. Clin. Invest., 83:585-592. In this assay, the proliferation of a B9.9 murine hybridoma subclone is dependent on the presence of IL-6. […]

[3] = tested on: delayed-type hypersensitivity (DTH) response; experiment: Delayed-type hypersensitivity to ovalbumin in guinea pigs, oral and intraperitoneal treatment; format: in vivo, guinea pig; conditions: dexamethasone 5 mg/kg, CdA or CAFdA 1 mg/kg, 24 and 48 hours, p<0.01
Protocol: Delayed-type hypersensitivity (DTH) is a cell-mediated immune response that typically takes longer than 12 hours to develop. In the guinea pig, a DTH reaction to an antigen can be established by first immunizing the animal with the antigen in an adjuvant such as Freund's complete adjuvant. Subsequent intradermal injection of the antigen causes no change for at least 10 hours, after which there is a gradual increase in erythema and swelling in response to antigen injection. This response peaks about at about 24 hours after challenge, then gradually subsides.
Histologically, the inflammatory response is characterized by intense inundation of the site with mononuclear cells, of which about half are lymphocytes and the other half monocytes. DTH is therefore an indicator of a monocyte-mediated immune reaction.
In one study, guinea pigs were sensitized to ovalbumin in adjuvant. The animals were then treated either orally or intraperitoneally with saline (control), dexamethasone (5 mg/kg), CdA (1 mg/kg) or CAFdA (1 mg/kg). The animals were then injected with ovalbumin intradermally to elicit the DTH response. The mean area of the swelling size was measured for each animal (nine or ten animals were treated for each protocol).

Nc1nc(Cl)nc2c1ncn2[C@H]1C[C@H](O)[C@@H](CO)O1 [CdA, 2-chloro-9,1'-beta-D-2'-deoxyribosyladenine]
cerebrospinal fluid IgG oligoclonal bonds (multiple sclerosis; all cases): complete disappearance
platelet counts (multiple sclerosis; all four patients): remained within the normal range
macrocytosis (multiple sclerosis; all patients, lasting six to eight months after cessation of treatment): modest macrocytosis
monocyte level (multiple sclerosis; another patient, after two treatments): substantially absent
neurologic function, EDSS and NRS scales (multiple sclerosis; during treatment with CdA): evidence of improvement in all four patients
toxic side effects (multiple sclerosis; four patients, 0.1 mg/kg each day i.v. for seven days, six monthly courses): no evidence of any significant toxic side effects
cerebrospinal fluid lymphocyte counts (multiple sclerosis; human, in vivo): marked drop
total CFS IgG (multiple sclerosis; human, in vivo): no significant change
monocyte drop (multiple sclerosis; one patient, after the first treatment): 40%
monocyte level (multiple sclerosis; same patient, after each of the remaining five treatments): substantially absent
RNA synthesis [1]: progressive reduction in RNA synthesis
IC50 (DHL9, wild type): 80 nM
pathological examination of joints compared to untreated controls [2]: milder inflammatory response coupled with much less tissue damage
supernatant IL-6 (IL-6; cytotoxic concentrations of CdA): high levels of IL-6
spontaneous secretion of IL-6 into the culture supernatant (IL-6; sub-toxic concentrations of CdA, three days): inhibited the spontaneous secretion of IL-6
swelling after ovalbumin challenge compared to saline control ([3]; intraperitoneal): significant inhibition of swelling
swelling after ovalbumin challenge compared to saline control ([3]; oral): ineffective
